US20230000876A1, “TREATING CANCERS WITH A CYCLIN-DEPENDENT KINASE INHIBITOR” (Nuvation Bio Inc., priority 2021, published 2023)
Like-named read-outs stand apart in the source and are kept apart here.

How the values were obtained:
[1] = system: SK-MEL-5; assay: Cell viability assay, melanoma cell line SK-MEL-5; type: cell-based
Description: 4.4.4 Compound Plate (10×) Preparation and Compound Treatment • 10× concentrate compound plate preparation: Add 198 μL of assay medium into each well of the V-bottom plate; then transfer 2 μL of the stock compound solution of each concentration from the stock plate. Add 2 μL of DMSO into the Blank and Control wells. Pipette up and down to mix well. This V-plate is designated as the 10× concentrate compound plate. • For day 0 plate, add 15 μL of the DMSO-medium into the Control wells. The final DMSO concentration was 0.1%. Then directly proceed to cell viability assay. • For assay plate, add 15 μL of the compound-medium of each well from the 10× concentrate compound plate into the cells in 96-well assay plate according to the plate map. Add 15 μL of the DMSO-medium into the Blank and Control wells. The final DMSO concentration was 0.1%. • Return the assay plate into incubator and incubate for 6 days.
The procedures were performed according to the Promega CellTiter-Glo Luminescent Cell Viability Assay Kit manual (Promega-G7573). • The CellTiter-Glo buffer was thawed and equilibrated to room temperature prior to use. • CellTiter-Glo Substrate was equilibrated to room temperature prior to use. • The entire liquid volume of CellTiter-Glo Buffer was transferred into the amber bottle containing CellTiter-Glo Substrate to reconstitute the lyophilized enzyme/substrate mixture. […] Plates were covered with aluminum foil to protect from light. • The contents were mixed for 2 minutes on an orbital shaker to induce cell lysis. • The plate was incubated at room temperature for 20 minutes to stabilize luminescent signal. • Record luminescence on the 2104 EnVision plate reader.
Inhibition rate (IR) of the tested compounds was determined by the following formula: IR (%)=(1−(RLU compound−RLU day0)/(RLU control−RLU day0))*100%. The inhibitions of different dose of compound were calculated in Excel file, and then were used to plot inhibition curves and evaluate related parameters, such as Min (%), Max (%) and GI50. […]

[2] = Pharmacokinetics and brain distribution after single oral dose, mice; type: in vivo, male CD1 mice
Description: The pharmacokinetics and brain distribution in maleCD1 mice and Sprague-Dawley rats following a single oral (PO) dose was evaluated. The compound of formula (I) was administered once at 10 mg/kg to mice and at 1, 10, 30, and 100 mg/kg to rats. All doses, compound of formula (I) concentrations, and derived PK parameters are expressed as the free base of the compound of formula (I).
The in-life portion of these studies was performed by Alliance Pharma (Malvern, Pa.) according to Protocols 200107-02 (mice) and 1910158-02 (rats). Animals were assigned randomly to the dose groups and were fasted 12 hours prior to dosing. Water was available ad libitum. The compound of formula (I) (as an HCl salt) was given to male CD1 mice at 10 mg/kg single PO dose, while in Sprague-Dawley rats, the doses were 1, 10, 30, and 100 mg/kg. In both studies, the compound of formula (I) was formulated in 0.5% hydroxypropyl methylcellulose (HPMC)/0.2% Tween 80 and the dosing volume was 5 mL/kg for all dose groups.
Whole blood was collected at 2, 4, 6, and 12 hours post dose from mice and predose and 1, 2, 4, 8, 12, and 24 hours post dose from rats into tubes containing dipotassium ethylenediaminetetraacetic acid (K2EDTA). Blood was obtained from 3 mice and 4 rats per time-point per dose level. The blood samples were processed into plasma analyzed at Alliance Pharma using the method as described below.
The brain tissue was collected from mice at 2, 4, 6, and 12 hours post dose and was collected from rats at 6 hours post dose given 1, 10, 30, or 100 mg/kg of the compound of formula (I). Brain tissue was obtained from 3 mice per time-point at the 10 mg/kg dose level and 4 rats per dose level at the 6-hour post dose time-point.
Brain tissue was rinsed by phosphate-buffered saline (PBS) buffer immediately after harvest, weighed, and mixed with solvent (MeOH:H2O [volume over volume of 20:80]) with a ratio of tissue to solvent of 1:4 (weight over volume). […] After homogenization, the homogenate was aliquoted out for sample analysis.
The concentrations of the compound of formula (I) in the plasma and brain homogenate were determined versus a calibration curve prepared in plasma and naïve brain homogenate, respectively. Samples were deproteinized with acetonitrile containing tolbutamide as internal standard. After centrifugation, the supernatants were analyzed by liquid chromatography with tandem mass spectrometry (LC-MS/MS). Chromatography was performed with a Zorbax SB-C18 (50×2.1 mm, […]) column under gradient conditions described in Table 22. Mobile Phase A (0.1% formic acid [FA] in water) and Mobile Phase B (0.1% FA in acetonitrile) were delivered as a flow rate of 0.8 mL/min. LC-MS/MS was performed using a positive TurboIonSpray® interface on a SciexAPI 4000 and multiple-reaction monitoring (MRM) over a concentration range of 1 ng/mL to 1000 (rats) or 2000 (mice) ng/mL for the plasma and brain homogenate samples.
The mean plasma concentration-time data of the compound of formula (I) was used to determine the pharmacokineticparameters by standard noncompartmental methods using Phoenix® WinNonlin (version 8.2.0; Certara, Princeton, N.J.). Graphs were plotted in Prism® (version 2.3.0; GraphPad, San Diego, Calif.). Concentrations were rounded to 3 significant figures.

CC(C)N1CCOc2c(F)cc(-c3nc(Nc4ccc(C5CCN(C)CC5)cn4)ncc3F)cc21 [Compound (I), 5-fluoro-4-(8-fluoro-4-isopropyl-3,4-dihydro-2H-benzo[b][1,4]oxazin-6-yl)-N-(5-(1-methylpiperidin-4-yl)pyridin-2-yl)pyrimidin-2-amine]
GI50 ([1]; Homo sapiens, SK-MEL-5, read-out: Absolute GI50): 1240 nM | Max (%) ([1]; inhibition rate): 116.12% | Min (%) ([1]; inhibition rate): −2.91% | Half-life in brain versus plasma ([2]; in vivo animal models, oral administration): longer half-life in the brain than in the plasma | Kp at 2 h ([2]; male, CD1, mouse, brain, po, 10 mg/kg, mice, single PO 10 mg/kg, 2 h, read-out: Brain:Plasma Ratio, mean (SD)): 1.7 | Kp at 4 h ([2]; male, CD1, mouse, brain, po, 10 mg/kg, mice, single PO 10 mg/kg, 4 h, read-out: Brain:Plasma Ratio, mean (SD)): 2.1 | Kp at 6 h ([2]; male, CD1, mouse, brain, po, 10 mg/kg, mice, single PO 10 mg/kg, 6 h, read-out: Brain:Plasma Ratio, mean (SD)): 1.9 | Kp at 12 h ([2]; male, CD1, mouse, brain, po, 10 mg/kg, mice, single PO 10 mg/kg, 12 h, read-out: Brain:Plasma Ratio, mean (SD)): 3.3 | Kp at 12 h ([2]; male, CD1, mouse, brain, po, 10 mg/kg, mice, single PO 10 mg/kg, at 2, 4, 6, and 12 hours post-dose, read-out: Brain-to-plasma concentration ratio): > 1.5 | concentration at 2 h ([2]; male, CD1, mouse, brain, mice, single PO 10 mg/kg, 2 h, read-out: Brain Conc): 309 ng/mL | concentration at 4 h ([2]; male, CD1, mouse, brain, mice, single PO 10 mg/kg, 4 h, read-out: Brain Conc): 436 ng/mL | concentration at 6 h ([2]; male, CD1, mouse, brain, mice, single PO 10 mg/kg, 6 h, read-out: Brain Conc): 464 ng/mL | concentration at 12 h ([2]; male, CD1, mouse, brain, mice, single PO 10 mg/kg, 12 h, read-out: Brain Conc): 345 ng/mL | concentration at 2 h ([2]; male, CD1, mouse, plasma, mice, single PO 10 mg/kg, 2 h, read-out: Plasma Conc): 187 ng/mL | concentration at 4 h ([2]; male, CD1, mouse, plasma, mice, single PO 10 mg/kg, 4 h, read-out: Plasma Conc): 209 ng/mL | concentration at 6 h ([2]; male, CD1, mouse, plasma, mice, single PO 10 mg/kg, 6 h, read-out: Plasma Conc): 247 ng/mL | concentration at 12 h ([2]; male, CD1, mouse, plasma, mice, single PO 10 mg/kg, 12 h, read-out: Plasma Conc): 105 ng/mL
